The target of data set [1] is T1, Nuclear receptor ROR-gamma (Homo sapiens, UniProt P51449).
T1 sequence (P51449 whole entry): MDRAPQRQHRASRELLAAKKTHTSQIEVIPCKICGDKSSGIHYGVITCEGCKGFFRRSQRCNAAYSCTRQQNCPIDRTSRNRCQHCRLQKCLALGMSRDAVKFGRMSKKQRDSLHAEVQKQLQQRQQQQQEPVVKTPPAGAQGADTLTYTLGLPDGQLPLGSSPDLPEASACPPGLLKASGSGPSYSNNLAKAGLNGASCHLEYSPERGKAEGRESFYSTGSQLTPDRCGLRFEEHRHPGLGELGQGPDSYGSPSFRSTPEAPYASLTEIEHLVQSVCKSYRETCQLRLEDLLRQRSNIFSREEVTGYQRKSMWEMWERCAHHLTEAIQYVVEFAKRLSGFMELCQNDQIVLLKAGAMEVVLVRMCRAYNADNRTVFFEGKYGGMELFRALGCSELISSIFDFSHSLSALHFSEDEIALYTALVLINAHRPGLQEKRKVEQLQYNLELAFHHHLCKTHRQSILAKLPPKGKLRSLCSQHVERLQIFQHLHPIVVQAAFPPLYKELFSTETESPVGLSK
Description: Agonist activity at human His-tagged RORgamma-LBD expressed in Sf9 cells assessed as inhibition of N-terminal biotinylated co-activator SRC1 recruitment in presence of ursolic acid measured after 60 mins by FRET assay

In data set [2] the target is T1, Nuclear receptor ROR-gamma. The source holds these as a separate data set.
Description: Agonist activity at human ROR-gamma LBD expressed in HEK293 cells assessed as transcriptional activity in presence of ursolic acid by Gal4-luciferase reporter assay
Data set [3] has as its target T2, Nuclear receptor subfamily 1 group I member 2 (Homo sapiens, UniProt O75469).
T2 sequence (O75469 whole entry): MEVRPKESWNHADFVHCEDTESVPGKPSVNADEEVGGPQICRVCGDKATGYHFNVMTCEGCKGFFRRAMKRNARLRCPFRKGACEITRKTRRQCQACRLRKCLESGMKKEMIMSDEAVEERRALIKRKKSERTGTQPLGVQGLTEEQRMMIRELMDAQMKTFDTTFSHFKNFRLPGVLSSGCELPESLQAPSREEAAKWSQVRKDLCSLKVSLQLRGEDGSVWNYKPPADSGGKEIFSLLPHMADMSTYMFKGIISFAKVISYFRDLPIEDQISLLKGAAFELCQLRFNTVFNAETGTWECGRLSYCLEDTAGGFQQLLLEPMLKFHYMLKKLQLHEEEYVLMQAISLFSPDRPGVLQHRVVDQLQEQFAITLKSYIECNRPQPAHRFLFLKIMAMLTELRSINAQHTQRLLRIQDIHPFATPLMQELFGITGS
Description: Agonist activity at human PXR-gamma expressed in HEK293 cells assessed as transcriptional activity in presence of ursolic acid by Gal4-luciferase reporter assay

The nature of data set [4]: in vivo. As to conditions: CD1, mouse, plasma, po, 10 mg/kg.
The nature of data set [5]: in vivo. As to conditions: CD1, mouse, po, 10 mg/kg.
Data set [6] in a line: in vivo. As to conditions: CD1, mouse, po, 10 mg/kg. The source holds these as a separate data set.
Description: Half life in CD1 mouse at 10 mg/kg, po
The nature of data set [7]: in vivo. The note with it: CD1, mouse, po, 10 mg/kg. The source holds these as a separate data set.
Data set [8] can be described thus: in vitro. The note with it: human, hepatocytes.
In data set [9] the target is CYP3A4 (Homo sapiens, UniProt P08684). Description: in vitro. The note with it: probe testosterone.
Description: Inhibition of CYP3A4 (unknown origin) assessed as oxidation of testosterone at 10 uM
Data set [10] addresses CYP2D6 (Homo sapiens, UniProt P10635). Description: in vitro. The note with it: probe testosterone.
Description: Inhibition of CYP2D6 (unknown origin) assessed as oxidation of testosterone at 10 uM
The nature of data set [11]: physchem. The note with it: PBS buffer, pH 7.4.
Description: Solubility of the compound in pH 7.4 PBS buffer
The nature of data set [12]: in vitro. The note with it: human, hepatocytes. This is another data set of the same source.
Description: Clearance in human hepatocyte measured per 10^6 cells

The structures appear in SMILES notation. Values after ≈ are worked out from the molar mass of the structure shown. Where only a bound is given, the exact number is not on record here.

Chain of CYP3A4 (P08684 whole entry): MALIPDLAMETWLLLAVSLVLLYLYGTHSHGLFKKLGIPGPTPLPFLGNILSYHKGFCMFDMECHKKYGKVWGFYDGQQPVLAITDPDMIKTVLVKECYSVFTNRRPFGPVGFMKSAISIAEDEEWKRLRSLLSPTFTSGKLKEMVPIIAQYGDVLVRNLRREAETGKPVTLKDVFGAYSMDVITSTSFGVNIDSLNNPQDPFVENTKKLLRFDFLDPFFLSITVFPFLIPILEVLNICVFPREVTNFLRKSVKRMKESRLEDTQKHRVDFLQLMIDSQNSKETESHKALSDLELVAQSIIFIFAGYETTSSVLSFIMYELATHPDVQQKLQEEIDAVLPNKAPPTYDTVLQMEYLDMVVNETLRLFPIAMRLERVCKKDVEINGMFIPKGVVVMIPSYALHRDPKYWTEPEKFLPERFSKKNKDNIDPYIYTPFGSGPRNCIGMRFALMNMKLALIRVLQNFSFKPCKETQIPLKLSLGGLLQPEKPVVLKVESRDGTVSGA
Chain of CYP2D6 (P10635 whole entry): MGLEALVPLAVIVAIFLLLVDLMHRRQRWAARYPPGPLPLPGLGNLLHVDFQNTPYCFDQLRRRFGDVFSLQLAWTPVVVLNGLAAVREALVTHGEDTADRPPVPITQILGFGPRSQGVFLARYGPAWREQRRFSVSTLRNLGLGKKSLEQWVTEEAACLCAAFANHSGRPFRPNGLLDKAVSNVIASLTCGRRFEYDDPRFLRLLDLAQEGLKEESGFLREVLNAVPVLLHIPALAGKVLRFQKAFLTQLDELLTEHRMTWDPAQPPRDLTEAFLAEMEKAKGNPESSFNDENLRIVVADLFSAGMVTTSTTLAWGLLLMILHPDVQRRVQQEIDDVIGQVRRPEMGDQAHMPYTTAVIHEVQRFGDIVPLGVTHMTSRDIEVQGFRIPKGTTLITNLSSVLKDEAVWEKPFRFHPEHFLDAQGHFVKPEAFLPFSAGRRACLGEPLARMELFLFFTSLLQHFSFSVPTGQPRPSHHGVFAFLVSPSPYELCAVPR

Usually EC50 stands for the concentration that produces a half-maximal response. Low values mean greater potency, high ones weaker potency. As a reminder, the CL/F is clearance divided by bioavailability, as obtained after extravascular dosing. The AUC(0-inf) is the area under the concentration-time curve extrapolated to infinity. By half-life is commonly meant the time needed for the level to fall by half in the phase considered. Read a low half-life as fast loss. A word on the bioavailability: it is the share of a dose that reaches the circulation, judged against a reference dose that is usually intravenous. One may read the hepatocyte CLint as the rate of metabolic loss divided by the concentration. Low readings indicate greater metabolic stability, high ones faster metabolism. One may read the inhibition as the relative decrease from the control value, in per cent. Broadly, the solubility is the concentration that dissolves in the medium under given conditions. A higher solubility goes with much dissolved substance. As for `O=C(O)CC[C@H]1CN(S(=O)(=O)c2cccc(C(F)(F)F)c2)c2cc(-c3ccccc3Cl)ccc2O1`, the results for the EC50 in data set [1], in data set [2] and in [3] were 9 nM, 414 nM and > 10 µM, respectively. In addition, the apparent clearance (CL/F) in data set [4] is 11.1 mL/min/kg. Further, in data set [5], the AUC(0-inf) is 11700 ng·h/mL. This molecule also showed a half-life in data set [6] of 266 min. The bioavailability in [7] came out at 78%. In addition, the hepatocyte CLint in [8] came to 32 µL/min/1e6 cells. Further, the results for the inhibition at 10 µM in data set [9] and in [10] were 20% and 0%, respectively. For the same molecule, the solubility in data set [11] was determined as 243 µM (≈ 128 µg/mL).

Consider `O=C(O)CC[C@H]1CN(S(=O)(=O)c2cccc(C(F)(F)F)c2)c2cc(-c3cccc(F)c3Cl)ccc2O1`, for which the EC50 in data set [1] is 262 nM; in [2], 144 nM; in [3], > 10 µM. The molecule also had an apparent clearance CL/F in [4] of 8.1 mL/min/kg. The same molecule yielded an AUC(0-inf) in [5] of 19600 ng·h/mL. Further, in [6], the half-life was 207 min. The same molecule gave a bioavailability in [7] of 95%. Also, in data set [8], the hepatocyte CLint was found to be 26 µL/min/1e6 cells. Also, the inhibition at 10 µM in data set [9] came out at 11%; in data set [10], 6%. Further, the solubility in data set [11] was 247 µM (≈ 134 µg/mL).

With `O=C(O)CC[C@H]1CN(S(=O)(=O)c2cccc(C(F)(F)F)c2)c2cc(/C=C/c3c(Cl)cccc3C(F)(F)F)ccc2O1`, in [4], the CL/F is 2 mL/min/kg. In data set [5], this molecule showed an AUC(0-inf) of 71000 ng·h/mL. Moreover, the half-life in data set [6] is 221 min. The molecule also returned a bioavailability in [7] of 86%. In data set [8], this molecule returned a hepatocyte CLint of 20 µL/min/1e6 cells. The inhibition at 10 µM in data set [9] came out at 8%; in data set [10] it was 3%. Moreover, in [11], the concentration in solution (solubility) came to 15 µM (≈ 9.3 µg/mL).

For the molecule `O=C(O)CC[C@H]1CN(S(=O)(=O)c2cccc(C(F)(F)F)c2)c2cc(-c3cccc(OC(F)F)c3)ccc2O1`, the EC50 was 10 nM in [1], 278 nM in data set [2] and > 10 µM in data set [3]. This molecule yielded a hepatocyte CLint in [8] of 36 µL/min/1e6 cells. Besides, the inhibition at 10 µM in data set [9] stood at 19%; in [10] it was 7%. In addition, the solubility in [11] was determined as 287 µM (≈ 160 µg/mL).

Consider `O=C(O)CC[C@H]1CN(S(=O)(=O)c2cccc(C(F)(F)F)c2)c2cc(-c3cc(F)ccc3Cl)ccc2O1`, for which the EC50 in [1] was 145 nM; in [2], 124 nM; in data set [3], > 10 µM. In data set [8], this molecule registered an intrinsic metabolic clearance (hepatocyte CLint) of 27 µL/min/1e6 cells. Also, the inhibition at 10 µM in data set [9] came out at 15%; in data set [10] it was 6%. In addition, the solubility in data set [11] turned out to be 239 µM (≈ 130 µg/mL).

For the molecule `O=C(O)CC[C@H]1CN(S(=O)(=O)c2cccc(C(F)(F)F)c2)c2cc(/C=C/c3c(F)cccc3Cl)ccc2O1`, the EC50 in [1] is 33 nM; in data set [2], 617 nM; in data set [3] it was > 10 µM. Also, in data set [8], the hepatocyte CLint was 26 µL/min/1e6 cells. Further, the inhibition at 10 µM in [9] is 33%; in data set [10], -5.6%. The concentration in solution in data set [11] (solubility) was 273 µM (≈ 156 µg/mL).

With `CCOc1nn2c(c1S(=O)(=O)N1C[C@H](CCC(=O)O)Oc3ccc(/C=C(\C)c4c(F)cccc4Cl)cc31)CCCC2`, the EC50 in data set [2] was 199 nM; in data set [3] it was > 10 µM. Further, the CL/F in [4] was found to be 7.8 mL/min/kg. Also, the AUC(0-inf) in data set [5] is 35600 ng·h/mL. This molecule also gave a half-life in data set [6] of 99.6 min. In data set [7], this molecule registered a bioavailability of 100%. Besides, the hepatocyte CLint in data set [8] was 15 µL/min/1e6 cells. Further, the inhibition at 10 µM in [9] was 19%; in data set [10], 6%. This molecule also gave a solubility in data set [11] of 288 µM (≈ 174 µg/mL).

In the case of `O=C(O)C1(C[C@H]2CN(S(=O)(=O)c3cccc(C(F)(F)F)c3)c3cc(-c4cccc(Cl)c4F)ccc3O2)CCOCC1`, the EC50 in [1] is 24 nM; in data set [2] it was 103 nM; in data set [3], > 10 µM. The same molecule registered a hepatocyte CLint in data set [8] of 13 µL/min/1e6 cells. Also, the figures for the inhibition at 10 µM in [9] and in data set [10] were 36% and 9%, respectively. Further, the concentration in solution in [11] (solubility) was 93 µM (≈ 57.1 µg/mL).

With `O=C(O)C1(C[C@H]2CN(S(=O)(=O)c3cccc(C(F)(F)F)c3)c3cc(-c4cc(F)ccc4F)ccc3O2)CCOCC1`, the EC50 in [1] was 5 nM; in data set [2], > 10000 nM; in [3], > 10 µM. The hepatocyte CLint in data set [8] was 21 µL/min/1e6 cells. The inhibition at 10 µM in [9] was 5%; in data set [10] it was 8%. This molecule also showed a solubility in data set [11] of 43 µM (≈ 25.7 µg/mL).

As to `C/C(=C\c1ccc2c(c1)N(S(=O)(=O)c1ccc(F)c(C3CC3)c1)C[C@H](CCC(=O)O)O2)c1c(F)cccc1Cl`, the results for the EC50 in data set [1], in data set [2] and in data set [3] were 269 nM, 495 nM and 6.7 µM, respectively. For the same molecule, the hepatocyte CLint in data set [8] is 11 µL/min/1e6 cells. For the same molecule, the inhibition at 10 µM turned out to be 4% in data set [9] and 10% in data set [10]. The molecule further returned a solubility in [11] of 250 µM (≈ 144 µg/mL).

With `O=C(O)C1(C[C@H]2CN(S(=O)(=O)c3cccc(C(F)(F)F)c3)c3cc(-c4cc(F)cc(OC(F)F)c4)ccc3O2)CCOCC1`, the EC50 stood at 8 nM in [1], 58 nM in [2] and 13 µM in [3]. Moreover, the hepatocyte CLint in [8] was 9 µL/min/1e6 cells. Besides, the inhibition at 10 µM is -2% in [9] and 4% in [10]. The solubility in data set [11] amounted to 90 µM (≈ 58.1 µg/mL).

Turning to `CC(C)(C[C@H]1CN(S(=O)(=O)c2cccc(C(F)(F)F)c2)c2cc(-c3cc(F)ccc3F)ccc2O1)C(=O)O`, the EC50 in [1] was 13 nM; in data set [2], 344 nM; in data set [3], > 10 µM. Besides, in data set [4], the CL/F was 13.2 mL/min/kg. This molecule also showed an AUC(0-inf) in [5] of 9820 ng·h/mL. The same molecule showed a half-life in [6] of 441 min. In data set [7], this molecule displayed a bioavailability of 78%. In data set [8], this molecule had a hepatocyte CLint of 7.7 µL/min/1e6 cells. Further, the inhibition at 10 µM in data set [9] worked out at 28%; in [10], 6%. The solubility in data set [11] turned out to be 13 µM (≈ 7.22 µg/mL).

`O=C(O)C1(C[C@H]2CN(S(=O)(=O)c3cccc(C(F)(F)F)c3)c3cc(-c4cc(F)cc(OC(F)F)c4)ccc3O2)COC1` had a CL/F in [4] of 70.2 mL/min/kg. In data set [5], this molecule gave an AUC(0-inf) of 1400 ng·h/mL. Also, the half-life in [6] is 164 min. In [7], this molecule gave a bioavailability of 59%. Besides, the hepatocyte CLint in [12] and in data set [8] was 17 µL/min/1e6 cells throughout. Besides, in [11], the concentration in solution (solubility) was 262 µM (≈ 162 µg/mL).

Consider `O=C(O)CC[C@H]1CN(S(=O)(=O)c2cccc(C(F)(F)F)c2)c2cc(-c3cc(F)ccc3F)ccc2O1`, for which the EC50 in data set [1] is 8 nM; in data set [2], 181 nM; in data set [3], > 10 µM. The hepatocyte CLint in [8] came to 31 µL/min/1e6 cells. The inhibition at 10 µM in data set [9] came to 13%; in [10], 1%. In [11], this molecule gave a solubility of 227 µM (≈ 120 µg/mL).

The values are drawn from ChEMBL document CHEMBL4837250, “Discovery of LYC-55716: A Potent, Selective, and Orally Bioavailable Retinoic Acid Receptor-Related Orphan Receptor-γ (RORγ) Agonist for Use in Treating Cancer” (J Med Chem, 2021).
